Reference: patent US12024507B2, “Compounds as GLP-1R agonists” (Terns Pharmaceuticals, Inc., priority 2021, dated 2024)

Assays:
human GLP-1R receptor = target: T1, human GLP-1R receptor (Homo sapiens, UniProt P43220); experiment: GLP-1R cell assay (cAMP TR-FRET, low expression CHO-K1_hGLP-1Rlow_clone10 cell line); assay type: cell-based; conditions: CHO-K1_hGLP-1Rlow_clone10 cells, relative to control GLP-1 peptide agonist, read-out: GLP1 EC50
T1 construct: expressed in transfected cells
Method: Stable cell lines expressing high and low GLP-1R surface expression were generated in CHO-K1 cells transfected (Fugene 6) with a puromycin selectable DNA plasmid encoding human GLP-1R receptor (accession number: NM_002062.5) under control of an EF1A promoter. Transfected cells were seeded into 24-well plates (9,000 cells/well) containing complete medium and incubated in a humidified incubator at 37° C. with 5% carbon dioxide. After overnight incubation, medium was replaced with complete medium supplemented with puromycin (6 μg/mL) and refreshed every 2-3 days to select for stably transfected cells. Individual pools of selected cells were expanded prior to analysis for responsiveness to GLP-1 control peptide using a TR-FRET assay to detect cAMP (LANCE Ultra cAMP Assay, Perkin Elmer). Briefly, cells were collected in Versene solution, plated in 384-well plates (1,000 cells/well) and combined with serially diluted GLP-1R control peptide (10 nL) using an acoustic dispenser (ECHO). Plates were incubated for 30 minutes at 25° C. prior to the addition of EU-cAMP tracer (5 μL) and Ulight-anti-cAMP (5 μL) reagents to each well, followed by 15 minutes incubation at 25° C. TR-FRET signal was detected using an EnVision Multimode Plate Reader (excitation=320 nm; emission=615 and 655 nm). Dose-response curves were used to generate EC50 values as a measure of responsiveness to the GLP-1R control peptide. Selected cell lines were monitored for responsiveness over multiple passages to ensure stability. […] Briefly, GLP-1R expression was analyzed by flow cytometry using a fluorescein-labeled Exendin-4 peptide fluorescent probe (FLEX). Cells were harvested in Versene solution and washed 3-times with PBS+0.5% BSA before incubation with FLEX reagent (10 μM) for 2 hours at room temperature. After incubation, cells were washed 3-times in PBS+0.5% BSA before final resuspension in PBS prior to analysis by flow cytometry to measure FLEX mean fluorescence intensity (MFI) as a measure of GLP-1R expression on the cell surface.
For compound testing in the CHO-K1_hGLP-1Rlow_clone10 cell line, cells were seeded in 384-well plates (1,000 cells/well). Test compounds were serially diluted in DMSO (10-point, 3-fold dilution), added to wells using an ECHO dispenser (10 nL/well) and plates were centrifuged for 1 min and agitated for 2 min at room temperature prior to 30-minute incubation at 25° C. After incubation, Eu-cAMP (5 μL) and Ulight-anti-cAMP (5 μL) reagents were added to each well, followed by centrifugation for 1 minute, agitation for 2 minutes at room temperature, and final incubation of the plates at 25° C. for 15 minutes. Plates were read using an EnVision microplate reader (excitation=320 nm; emission=615 and 655 nm). Dose-response curves were generated from duplicate wells based on percent activation calculated relative to a control GLP-1 peptide agonist that was run in parallel. EC50 values were determined by fitting percent activation as a function of compound concentration using the Hill equation (XLfit).
The compounds tested were compound samples prepared according to the General Procedures described in the Examples section.

[1] = Metabolic stability in human hepatocytes; assay type: in vitro ADME; conditions: cryopreserved hepatocytes, 1×10^6 cells/mL; for CLint scaled at 1 μM: intrinsic clearance; for half-life at 1 μM: read-out: Human T1/2
Method: (§1) Test compounds were incubated in rat and human hepatocytes and stability was assessed from the substrate […] approach. Test compounds were dissolved in dimethyl sulfoxide (DMSO) to create a 10 mM Stock, and then further diluted to create a 1000×Working Stock of 1 mM with DMSO in 96-well plates for test compounds and the positive control (midazolam). Vials containing cryopreserved hepatocytes were removed from the liquid nitrogen tank and immediately immersed in a 37° C. water bath. The vials were shaken gently until the contents had thawed and were then immediately emptied into 48 mL of pre-warmed HT Medium in a 50 mL conical tube. Cells remaining in the vial were resuspended with 1.0 mL of pre-warmed HT Medium and added to the conical tube. The tube was capped and then gently inverted several times to resuspend the hepatocytes. The cell suspension was centrifuged at 50×g at room temperature for 5 minutes and the supernatant discarded. The cell pellet was loosened by gently swirling the centrifuge tube and was re-suspended in 4 mL of warm Dulbecco's Modified Eagle medium (DMEM). Cell density was determined by a cell counter by Nexcelom, and DMEM medium was added to obtain a target density of 1×10^6 cells/mL. The assay was carried out in 96-well microtiter plates. Test Compounds were incubated at 1 μM with 1×10^6 cells/mL hepatocytes in DMEM for 0, 30, 60, 120 and 240 minutes. The incubation was carried out with gentle shaking at 37° C. under a humid atmosphere of 95% air/5% CO2. The volume of the incubation mixture was 37 μL with a final 0.1% DMSO. At each of the time points, the incubation was stopped by adding 150 μL quenching solution (100% acetonitrile, 0.1% formic acid containing bucetin as an internal standard for positive ESI mode). Subsequently, the mixtures were vortexed for 20 min and centrifuged at 4,000 RPM at 10° C. The supernatant (80 μL) was transferred to a clean 96-well plate and analyzed by LC-MS/MS. Midazolam at 1 μM with a final 0.1% DMSO was included as a positive control to verify assay performance. The percent parent remaining, intrinsic and predicted hepatic clearance and t1/2 were calculated. All samples were analyzed by LC-MS/MS using an AB Sciex API 4000 instrument, coupled to a Shimadzu LC-20AD LC Pump system. Separation was achieved using a Waters Atlantis T3 dC18 reverse phase HPLC column (20 mm×2.1 mm) at a flow rate of 0.5 mL/min. The mobile phase consisted of 0.1% formic acid in water (solvent A) and 0.1% formic acid in 100% acetonitrile (solvent B). Elution conditions are detailed below.
(§2) The ion optics of each test compound were optimized for their declustering potential (DP), […] (CE), collision-cell exit potential (CXP) and used in a selected ion monitoring experiment in the positive ion mode. The peak area ratio of each test compound to internal standard was then evaluated for stability. The extent of metabolism was calculated based on the disappearance of the test compound, compared to its initial concentration. The initial rates of clearance of the test compound were calculated using the linear regression plot of semi-log % remaining of the compound versus time.
(§3) The predicted hepatic clearance (CLhep) was calculated using the well stirred method with the following formula with CLint(in vivo) normalized based on liver weight: CLint(in vivo)=CLint×Hepatocellularity×liver weight CLhep predicted=(CLint(in vivo)×Qliver)/(CLint(in vivo)+Qliver) Where Qliver ((ml/min/kg) is Liver Blood Flow
(§4) The relevant physiological parameters of liver weight, blood flow, and hepatocellularity for various species are listed below:
(§5) Results are presented in the Table B3 below for the intrinsic clearance (mL/min/kg) and half-life (t1/2).

[2] = Metabolic stability in rat hepatocytes; assay type: in vitro ADME; conditions: cryopreserved hepatocytes, 1×10^6 cells/mL; for CLint scaled at 1 μM: intrinsic clearance; for half-life at 1 μM: read-out: Rat T1/2
Method: as §1, §2, §3, §4, §5

T1 sequence (P43220 24-463): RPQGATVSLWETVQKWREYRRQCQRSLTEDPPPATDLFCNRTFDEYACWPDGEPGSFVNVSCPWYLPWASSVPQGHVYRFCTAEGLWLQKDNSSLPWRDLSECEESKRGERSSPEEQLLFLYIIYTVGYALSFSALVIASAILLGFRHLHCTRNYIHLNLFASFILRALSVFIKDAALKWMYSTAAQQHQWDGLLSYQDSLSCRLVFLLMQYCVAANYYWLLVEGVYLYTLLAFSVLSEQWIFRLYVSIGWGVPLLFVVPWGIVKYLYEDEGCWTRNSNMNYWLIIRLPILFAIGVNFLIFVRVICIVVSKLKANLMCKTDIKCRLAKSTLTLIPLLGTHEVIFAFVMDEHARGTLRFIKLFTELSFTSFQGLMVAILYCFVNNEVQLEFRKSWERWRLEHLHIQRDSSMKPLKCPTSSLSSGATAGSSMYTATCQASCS

SMILES | EC50 (human GLP-1R receptor) [nM] | further results
CS(=O)(=O)NC(=O)c1ccc2nc(CN3CCN(c4cccc(OCc5ccc(C#N)cc5F)n4)CC3)n(Cc3ncco3)c2c1 [Compound 4, 2-((4-(6-((4-cyano-2-fluorobenzyl)oxy)pyridin-2-yl)piperazin-1-yl)methyl)-N-(dioxo-l5-sulfaneyl)-1-(oxazol-2-ylmethyl)-1H-benzo[d]imidazole-6-carboxamide] | 231 | –
N#Cc1ccc(COc2cccc(C3CCN(Cc4nc5ccc(C6=CC(=O)NC6=O)cc5n4Cc4cncs4)CC3)n2)c(F)c1 [Compound 9, 4-(((6-(1-((6-(2,5-dioxo-2,5-dihydro-1H-pyrrol-3-yl)-1-(thiazol-5-ylmethyl)-1H-benzo[d]imidazol-2-yl)methyl)piperidin-4-yl)pyridin-2-yl)oxy)methyl)-3-fluorobenzonitrile] | 461 | –
CC1(c2ccc(C#N)cc2F)Oc2cccc(C3CCN(Cc4nc5ccc(-c6nnn[nH]6)cc5n4C[C@@H]4CCO4)CC3)c2O1 (stereo partly drawn) [Compound 16, 3-fluoro-4-(2-methyl-4-(1-((1-(((S)-oxetan-2-yl)methyl)-6-(1H-tetrazol-5-yl)-1H-benzo [d]imidazol-2-yl)methyl)piperidin-4-yl)benzo[d][1,3]dioxol-2-yl)benzonitrile] | 2.68 | CLint scaled at 1 μM [1]: 6.22 ± 0.55 mL/min/kg; half-life at 1 μM [1]: 6.44 ± 0.571 h; CLint scaled at 1 μM [2]: 6.93 mL/min/kg; half-life at 1 μM [2]: 8 h
N#Cc1ccc(COc2cccc(C34CCN(Cc5nc6ccc(-c7nnn[nH]7)cc6n5Cc5cncs5)CC3C4)n2)c(F)c1 (centres unmarked) [Compound 10, 4-(((6-(3-((6-(1H-tetrazol-5-yl)-1-(thiazol-5-ylmethyl)-1H-benzo[d]imidazol-2-yl)methyl)-3-azabicyclo[4.1.0]heptan-6-yl)pyridin-2-yl)oxy)methyl)-3-fluorobenzonitrile] | 118 | –
N#Cc1ccc(COc2cccc(C3CCN(Cc4nc5ccc(-c6c[nH]c(=O)o6)cc5n4Cc4cncs4)CC3)n2)c(F)c1 [Compound 12, 3-fluoro-4-(((6-(1-((6-(2-oxo-2,3-dihydrooxazol-5-yl)-1-(thiazol-5-ylmethyl)-1H-benzo[d]imidazol-2-yl)methyl)piperidin-4-yl)pyridin-2-yl)oxy)methyl)benzonitrile] | 704 | –

Second part, led by results:

EC50 (human GLP-1R receptor) [nM] | SMILES | further results
148 | O=c1nc(-c2ccc3nc(CN4CCN(c5cccc(OCc6ccc(Br)cc6F)n5)CC4)n(C[C@@H]4CCO4)c3c2)[nH]o1 [Compound 7, (S)-3-(2-((4-(6-((4-bromo-2-fluorobenzyl)oxy)pyridin-2-yl)piperazin-1-yl)methyl)-1-(oxetan-2-ylmethyl)-1H-benzo[d]imidazol-6-yl)-1,2,4-oxadiazol-5(2H)-one] | –
45.4 | N#Cc1ccc(COc2cccc(C3CCN(Cc4nc5ccc(-c6nc(=O)o[nH]6)cc5n4C[C@@H]4CCO4)CC3)n2)c(F)c1 [Compound 5, (S)-3-fluoro-4-(((6-(1-((1-(oxetan-2-ylmethyl)-6-(5-oxo-2,5-dihydro-1,2,4-oxadiazol-3-yl)-1H-benzo[d]imidazol-2-yl)methyl)piperidin-4-yl)pyridin-2-yl)oxy)methyl)benzonitrile] | –
53.2 | N#Cc1ccc(COc2cccc(C3CCN(Cc4nc5ccc(-c6nnn[nH]6)cc5n4Cc4cncs4)CC3)n2)c(F)c1 [Compound 11, 4-(((6-(1-((6-(1H-tetrazol-5-yl)-1-(thiazol-5-ylmethyl)-1H-benzo[d]imidazol-2-yl)methyl)piperidin-4-yl)pyridin-2-yl)oxy)methyl)-3-fluorobenzonitrile] | CLint scaled at 1 μM [1]: 19.7 ± 0.4 mL/min/kg; half-life at 1 μM [1]: 2.03 ± 0.041 h; CLint scaled at 1 μM [2]: 68.3 ± 2.52 mL/min/kg; half-life at 1 μM [2]: 0.812 ± 0.03 h
10.6 | O=c1cc(-c2ccc3nc(CN4CCC(c5cccc(OCc6ccc(Cl)cc6F)n5)CC4)n(C[C@@H]4CCO4)c3c2)o[nH]1 [Compound 6, (S)-5-(2-((4-(6-((4-chloro-2-fluorobenzyl)oxy)pyridin-2-yl)piperidin-1-yl)methyl)-1-(oxetan-2-ylmethyl)-1H-benzo[d]imidazol-6-yl)isoxazol-3(2H)-one] | –
50 | N#Cc1ccc(COc2cccc(C3CCN(Cc4nc5ccc(C(=O)NO)cc5n4C[C@@H]4CCO4)CC3)n2)c(F)c1 [Compound 14, (S)-2-((4-(6-((4-cyano-2-fluorobenzyl)oxy)pyridin-2-yl)piperidin-1-yl)methyl)-N-hydroxy-1-(oxetan-2-ylmethyl)-1H-benzo[d]imidazole-6-carboxamide] | –
> 10000 | N#Cc1ccc(COc2cccc(C3CCN(Cc4nc5ccc(C6(O)COC6)cc5n4Cc4cncs4)CC3)n2)c(F)c1 [Compound 15, 3-fluoro-4-(((6-(1-((6-(3-hydroxyoxetan-3-yl)-1-(thiazol-5-ylmethyl)-1H-benzo[d]imidazol-2-yl)methyl)piperidin-4-yl)pyridin-2-yl)oxy)methyl)benzonitrile] | –
5940 | N#Cc1ccc(COc2cccc(N3CCN(Cc4nc5ccc(C(=O)NCC(F)(F)F)cc5n4Cc4ncco4)CC3)n2)c(F)c1 [Compound 3, 2-((4-(6-((4-cyano-2-fluorobenzyl)oxy)pyridin-2-yl)piperazin-1-yl)methyl)-1-(oxazol-2-ylmethyl)-N-(2,2,2-trifluoroethyl)-1H-benzo[d]imidazole-6-carboxamide] | –
